# Target: human wild type-CFTR (Homo sapiens, UniProt P13569)
# Test: Cell-based YFP assay
# Parameters: expressed in transfected cells; host or cells: CHO-K1 (Chinese hamster ovary)
# Details: CHO-K1 cells expressing human wild type-CFTR and YFP-H148Q/I152L; forskolin 20 μM = 100% activity; read-out: Cell-based YFP Assay (EC50) Concentration Range
# Experimental: Forskolin (Tocris cat. #1099), Dimethyl sulfoxide (Sigma cat. #D4540), FLUO star Omega microplate reader (BMG Labtech, Ortenberg, Germany), MARS Data Analysis Software (BMG Labtech), GraphPad Prism 5 (GraphPad Software, Inc.) Chinese hamster ovary (CHO-K1) cells expressing human wild type-CFTR and halide sensor YFP-H148Q/I152L were constructed and grown in Dulbecco's modified Eagle's medium (DMEM) supplemented with 10% FBS, 2 mM glutamine, 100 units/ml penicillin and 100 μg/ml streptomycin. Chinese hamster ovary (CHO-K1) cells expressing human wild type-CFTR and halide sensor YFP-H148Q/I152L were seeded in 96-well microplate with 2×10^4 cells/well and incubated in 37° C., 48 hours. Then, each well was washed 3 times with PBS and 100 μL PBS was added in each well. […] YFP fluorescence signal affected by I^− ion influx through CFTR channel was measured in 37° C., FLUO star Omega microplate reader according to the following steps: • i) basal 2 seconds; • ii) 140 mM I^− solution 100 μL addition to each well; • iii) YFP fluorescence signal measurement start after 6 seconds; and • iv) following 14 seconds signal detection in every 0.4 seconds periods. […] Experiments were performed in triplicates and the data was averaged. EC50 values were calculated with MARS Data Analysis Software (BMG Labtech) and GraphPad Prism 5.
# Sequence of human wild type-CFTR (P13569 whole entry): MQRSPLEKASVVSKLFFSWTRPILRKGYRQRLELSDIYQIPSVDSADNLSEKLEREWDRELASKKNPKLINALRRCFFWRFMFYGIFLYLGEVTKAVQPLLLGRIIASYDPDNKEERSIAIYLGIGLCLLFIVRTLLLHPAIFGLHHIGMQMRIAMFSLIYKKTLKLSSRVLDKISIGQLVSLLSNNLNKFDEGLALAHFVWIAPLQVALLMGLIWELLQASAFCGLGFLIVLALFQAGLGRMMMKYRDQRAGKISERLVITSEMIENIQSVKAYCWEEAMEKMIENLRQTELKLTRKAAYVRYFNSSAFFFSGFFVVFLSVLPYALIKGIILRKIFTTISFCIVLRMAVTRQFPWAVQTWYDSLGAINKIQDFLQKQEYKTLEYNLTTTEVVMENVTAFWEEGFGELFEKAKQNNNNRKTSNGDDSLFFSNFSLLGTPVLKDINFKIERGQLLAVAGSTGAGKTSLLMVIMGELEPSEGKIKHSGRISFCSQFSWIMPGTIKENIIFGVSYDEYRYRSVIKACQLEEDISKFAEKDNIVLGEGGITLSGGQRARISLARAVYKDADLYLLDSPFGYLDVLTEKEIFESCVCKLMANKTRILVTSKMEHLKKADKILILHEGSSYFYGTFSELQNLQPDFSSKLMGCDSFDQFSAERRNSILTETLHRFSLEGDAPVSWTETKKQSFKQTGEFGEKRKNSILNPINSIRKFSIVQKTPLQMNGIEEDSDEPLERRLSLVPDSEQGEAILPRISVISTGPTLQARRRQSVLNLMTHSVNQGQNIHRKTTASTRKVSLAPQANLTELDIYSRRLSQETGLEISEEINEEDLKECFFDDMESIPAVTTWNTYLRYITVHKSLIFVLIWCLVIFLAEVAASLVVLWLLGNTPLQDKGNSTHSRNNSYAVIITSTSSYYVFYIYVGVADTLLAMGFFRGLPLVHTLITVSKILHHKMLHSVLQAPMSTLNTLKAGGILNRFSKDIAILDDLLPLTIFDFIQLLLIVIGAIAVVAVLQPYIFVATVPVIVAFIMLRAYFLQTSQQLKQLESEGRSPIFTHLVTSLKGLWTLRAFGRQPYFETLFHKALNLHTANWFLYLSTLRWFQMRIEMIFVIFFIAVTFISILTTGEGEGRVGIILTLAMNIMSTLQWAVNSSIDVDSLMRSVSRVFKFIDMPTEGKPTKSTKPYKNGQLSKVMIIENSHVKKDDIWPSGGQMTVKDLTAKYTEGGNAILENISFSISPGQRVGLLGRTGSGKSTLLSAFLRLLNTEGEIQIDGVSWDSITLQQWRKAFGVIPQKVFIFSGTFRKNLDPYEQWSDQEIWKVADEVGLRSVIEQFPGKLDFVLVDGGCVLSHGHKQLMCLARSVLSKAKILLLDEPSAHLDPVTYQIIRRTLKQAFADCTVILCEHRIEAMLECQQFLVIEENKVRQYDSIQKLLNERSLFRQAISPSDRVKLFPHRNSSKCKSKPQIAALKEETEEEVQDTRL
row,EC50 [nM],Structure (SMILES)
1,200 to 2000,COC(=O)c1cc2nccc(-c3ccc(OC)c(OC)c3)n2n1 [Compound 4]
2,≥ 2000,"COc1ccc(-c2ccnc3cc(C(=O)O)nn23)cc1OC [Compound 5, 7-(3,4-dimethoxyphenyl)pyrazolo[1,5-a]pyrimidine-2-carboxylic acid]"
3,200 to 2000,"CCOc1ccc(NC(=O)c2cc3nccc(-c4ccc(OC)cc4)n3n2)cc1 [Compound 13, N-(4-ethoxyphenyl)-7-(4-methoxyphenyl)pyrazolo [1,5-a]pyrimidine-2-carboxamide]"
4,200 to 2000,"CCOC(=O)CNC(=O)c1cc2nccc(-c3ccc(OC)c(OC)c3)n2n1 [Compound 20, ethyl (7-(3,4-dimethoxyphenyl)pyrazolo [1,5-a]pyrimidine-2-carbonyl) glycinate]"
5,≥ 2000,"COc1ccc(-c2ccnc3cc(C(=O)NCC(=O)O)nn23)cc1OC [Compound 22, (7-(3,4-dimethoxyphenyl)pyrazolo[1,5-a]pyrimidine-2-carbonyl) glycine]"
6,≥ 2000,"COC(=O)c1ccc(NC(=O)c2cc3nccc(-c4ccc(OC)cc4)n3n2)cc1 [Compound 23, methyl 4-(7-(4-methoxyphenyl)pyrazolo[1,5-a]pyrimidine-2-carboxamido)benzoate]"
7,≥ 2000,"CCOc1ccc(NC(=O)c2cc3nccc(-c4cccc(OC)c4)n3n2)cc1 [Compound 24, N-(4-ethoxyphenyl)-7-(3-methoxyphenyl)pyrazolo [1,5-a]pyrimidine-2-carboxamide]"
8,≥ 2000,"COC(=O)c1ccc(NC(=O)c2cc3nccc(-c4cccc(OC)c4)n3n2)cc1 [Compound 25, methyl 4-(7-(3-methoxyphenyl)pyrazolo [1,5-a]pyrimidine-2-carboxamido) benzoate]"
9,200 to 2000,"CCOC(=O)C1(NC(=O)c2cc3nccc(-c4ccc(OC)c(OC)c4)n3n2)CC1 [Compound 26, ethyl 1-(7-(3,4-dimethoxyphenyl)pyrazolo [1,5-a]pyrimidine-2-carboxamido) cyclopropane-1-carboxylate]"
10,≥ 2000,"COc1ccc(-c2ccnc3cc(C(=O)NC4CCC(N(C)C)CC4)nn23)cc1OC (stereo not shown) [Compound 27, 7-(3,4-dimethoxyphenyl)-N-(4-(dimethylamino)cyclohexyl) pyrazolo[1,5-a]pyrimidine-2-carboxamide]"
11,≥ 2000,"COc1ccc(-c2ccnc3cc(C(=O)NC4(C(=O)O)CC4)nn23)cc1OC [Compound 29, 1-(7-(3,4-dimethoxyphenyl)pyrazolo[1,5-a]pyrimidine-2-carboxamido) cyclopropane-1-carboxylic acid]"
12,≥ 2000,"COc1ccc(-c2ccnc3cc(C(=O)Nc4ccc(C(=O)NCC(=O)O)cc4)nn23)cc1OC [Compound 30, (4-(7-(3,4-dimethoxyphenyl)pyrazolo[1,5-a]pyrimidine-2-carboxamido)benzoyl)glycine]"
13,≥ 2000,"COc1ccc(-c2ccnc3cc(C(=O)Nc4ccc(OCC(=O)O)cc4)nn23)cc1OC [Compound 35, 2-(4-(7-(3,4-dimethoxyphenyl)pyrazolo[1,5-a]pyrimidine-2-carboxamido)phenoxy)acetic acid]"
14,200 to 2000,"O=C(Nc1ccc(O)cc1)c1cc2nccc(-c3ccc(O)c(O)c3)n2n1 [Compound 38, 7-(3,4-dihydroxyphenyl)-N-(4-hydroxyphenyl)pyrazolo [1,5-a]pyrimidine-2-carboxamide]"
15,≥ 2000,"COC(=O)c1ccc(NC(=O)c2cc3nccc(-c4ccc(Cl)c(Cl)c4)n3n2)cc1 [Compound 40, methyl 4-(7-(3,4-dichlorophenyl)pyrazolo [1,5-a]pyrimidine-2-carboxamido) benzoate]"
16,200 to 2000,"COc1ccc(-c2ccnc3cc(C(=O)Nc4ccc(C(=O)N[C@@H](C)C(=O)O)cc4)nn23)cc1OC [Compound 44, (4-(7-(3,4-dimethoxyphenyl)pyrazolo[1,5-a]pyrimidine-2-carboxamido)benzoyl)-L-alanine]"
17,≥ 2000,"COc1ccc(-c2ccnc3cc(C(=O)Nc4ccc(C(=O)N[C@@H](CO)C(=O)O)cc4)nn23)cc1OC [Compound 45, (4-(7-(3,4-dimethoxyphenyl)pyrazolo[1,5-a]pyrimidine-2-carboxamido)benzoyl)-L-serine]"

row,EC50 [nM],Structure (SMILES)
1,200 to 2000,"COc1ccc(-c2ccnc3cc(C(=O)Nc4ccc(C(=O)N[C@@H](Cc5ccccc5)C(=O)O)cc4)nn23)cc1OC [Compound 49, (4-(7-(3,4-dimethoxyphenyl)pyrazolo[1,5-a]pyrimidine-2-carboxamido)benzoyl)-L-phenylalanine]"
2,≥ 2000,"COc1ccc(-c2ccnc3cc(C(=O)Nc4ccc(C(=O)N5CCC[C@H]5C(=O)O)cc4)nn23)cc1OC [Compound 50, (4-(7-(3,4-dimethoxyphenyl)pyrazolo[1,5-a]pyrimidine-2-carboxamido)benzoyl)-L-proline]"
3,200 to 2000,"COc1ccc(-c2ccnc3cc(C(=O)Nc4ccc(C(=O)NCCO)cc4)nn23)cc1OC [Compound 53, 7-(3,4-dimethoxyphenyl)-N-(4-((2-hydroxyethyl)carbamoyl)phenyl)pyrazolo[1,5-a] pyrimidine-2-carboxamide]"
4,200 to 2000,"COc1ccc(-c2ccnc3cc(C(=O)Nc4cccc(C(N)=O)c4)nn23)cc1OC [Compound 54, N-(3-carbamoylphenyl)-7-(3,4-dimethoxyphenyl)pyrazolo [1,5-a]pyrimidine-2-carboxamide]"
5,< 200,"COC(=O)[C@H](CCSC)NC(=O)c1ccc(NC(=O)c2cc3nccc(-c4ccc(OC)c(OC)c4)n3n2)cc1 [Compound 59, methyl (4-(7-(3,4-dimethoxyphenyl)pyrazolo [1,5-a]pyrimidine-2-carboxamido)benzoyl)-L-methioninate]"
6,< 200,"COC(=O)C[C@H](NC(=O)c1ccc(NC(=O)c2cc3nccc(-c4ccc(OC)c(OC)c4)n3n2)cc1)C(=O)OC [Compound 60, dimethyl (4-(7-(3,4-dimethoxyphenyl)pyrazolo [1,5-a]pyrimidine-2-carboxamido)benzoyl)-L-aspartate]"
7,≥ 2000,"COc1ccc(-c2ccnc3cc(C(=O)N4CCOCC4)nn23)cc1OC [Compound 61, (7-(3,4-dimethoxyphenyl)pyrazolo[1,5-a]pyrimidine-2-yl) (morpholino)methanone]"
8,< 200,"COC(=O)[C@@H](C)NC(=O)c1ccc(NC(=O)c2cc3nccc(-c4ccc(OC)c(OC)c4)n3n2)cc1 [Compound 64, methyl (4-(7-(3,4-dimethoxyphenyl)pyrazolo[1,5-a]pyrimidine-2-carboxamido)benzoyl)-D-alaninate]"
9,≥ 2000,"COc1ccc(-c2ccnc3cc(C(=O)NN4CCN(C)CC4)nn23)cc1OC [Compound 68, 7-(3,4-dimethoxyphenyl)-N-(4-methylpiperazin-1-yl) pyrazolo[1,5-a]pyrimidine-2-carboxamide]"
10,≥ 2000,"COC(=O)c1ccc(NC(=O)c2cc3nccc(-c4ccc5c(c4)OCCO5)n3n2)cc1 [Compound 70, methyl 4-(7-(2,3-dihydrobenzo[b][1,4]dioxin-6-yl)pyrazolo[1,5-a]pyrimidine-2-carboxamido)benzoate]"
11,≥ 2000,"COc1ccc(-c2ccnc3cc(C(=O)N[C@H]4CC[C@@H](C(N)=O)CC4)nn23)cc1OC [Compound 71, N-((1S,4S)-4-carbamoylcyclohexyl)-7-(3,4-dimethoxyphenyl)pyrazolo [1,5-a]pyrimidine-2-carboxamide]"
12,≥ 2000,"COc1ccc(-c2ccnc3cc(C(=O)N[C@H]4CC[C@H](C(N)=O)CC4)nn23)cc1OC [Compound 74, N-((1R,4R)-4-carbamoylcyclohexyl)-7-(3,4-dimethoxyphenyl)pyrazolo [1,5-a]pyrimidine-2-carboxamide]"
13,≥ 2000,"COc1ccc(-c2ccnc3cc(C(=O)Nc4cccc(C(=O)N5CCNCC5)c4)nn23)cc1OC [Compound 80, 7-(3,4-dimethoxyphenyl)-N-(3-(piperazine-1-carbonyl)phenyl)pyrazolo [1,5-a]pyrimidine-2-carboxamide]"
14,≥ 2000,"COc1ccc(-c2ccnc3cc(C(=O)N[C@H]4CC[C@@H](C(=O)N5CCNCC5)CC4)nn23)cc1OC [Compound 81, 7-(3,4-dimethoxyphenyl)-N-((1S,4S)-4-(piperazine-1-carbonyl)cyclohexyl) pyrazolo[1,5-a]pyrimidine-2-carboxamide]"
15,≥ 2000,"COc1ccc(-c2ccnc3cc(C(=O)N[C@H]4CC[C@H](C(=O)N5CCNCC5)CC4)nn23)cc1OC [Compound 82, 7-(3,4-dimethoxyphenyl)-N-((1R,4R)-4-(piperazine-1-carbonyl)cyclohexyl) pyrazolo[1,5-a]pyrimidine-2-carboxamide]"
16,≥ 2000,"COc1ccc(-c2ccnc3cc(C(=O)N4CCN(C(=O)COC(C)=O)CC4)nn23)cc1OC [Compound 83, 2-(4-(7-(3,4-dimethoxyphenyl)pyrazolo[1,5-a]pyrimidine-2-carbonyl)piperazin-1-yl)-2-oxoethyl acetate]"
17,≥ 2000,"COc1ccc(-c2ccnc3cc(C(=O)NC4CCN(C(=O)COC(C)=O)CC4)nn23)cc1OC [Compound 84, 2-(4-(7-(3,4-dimethoxyphenyl)pyrazolo[1,5-a]pyrimidine-2-carboxamido)piperidin-1-yl)-2-oxoethyl acetate]"
